In patent publication EP4644383A1 (Jiangsu Yahong Meditech Co., Ltd., priority 2022, dated 2024):
Like-named read-outs stand apart in the source and are kept apart here.

Assays:
Assay type in all cases: biochemical
FGFR2 = target: T1, FGFR2 (Homo sapiens, UniProt P21802); experiment: FGFR2 kinase activity inhibition assay (LanthaScreen TR-FRET)
T1 construct: FGFR2's cytoplasmic domain [399-821 (terminal) amino acids]; purchased Carna 08-134
How it was run: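 GST-fused FGFR2 cytoplasmic domain (aa 399-821) was run as in the FGFR1 protocol: preincubated 10 min at 23 °C with compound (3-fold series from 1 µM) in 50 mM HEPES pH 7.5, 10 mM MgCl2, 4 mM DTT, 1% DMSO. A 2× mix of 28 nM fluorescein-poly GT/28 µM ATP then reacted 30 min. Tb-PY20/EDTA quench preceded the TR-FRET 520/495 read.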

FGFR3 = target: T2, FGFR3 (Homo sapiens, UniProt P22607); experiment: FGFR3 kinase activity inhibition assay (LanthaScreen TR-FRET); settings: for Selectivity (X) FGFR1/FGFR3: ratio of IC50 FGFR1/FGFR3, selectivity towards FGFR3; for Selectivity (X) FGFR2/FGFR3: ratio of IC50 FGFR2/FGFR3, selectivity towards FGFR3; for Selectivity (X) FGFR4/FGFR3: ratio of IC50 FGFR4/FGFR3, selectivity towards FGFR3
T2 construct: FGFR3's cytoplasmic domain [436-806 (terminal) amino acids]; purchased Carna 08-135
How it was run: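 Read-out is TR-FRET, with the 520 nm/495 nm emission ratio normalised to DMSO (max) and enzyme-free (min) controls. Enzyme was the FGFR3 cytoplasmic domain, residues 436-806. EDTA (10 mM) stopped the reaction, followed by 60 min at 22 °C before reading.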

FGFR4 = target: T3, FGFR4 (Homo sapiens, UniProt P22455); experiment: FGFR4 kinase activity inhibition assay (LanthaScreen TR-FRET)
T3 construct: FGFR4's cytoplasmic domain [460-802 (terminal) amino acids]; purchased Carna 08-136
How it was run: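 GST-tagged cytoplasmic domains (FGFR2 aa 399-821; FGFR4 aa 460-802) were preincubated 10 min at 23 °C with compound (top 1 µM, threefold dilutions). Then 28 nM fluorescein-poly GT and 28 µM ATP were added for 30 min at 23 °C in HEPES pH 7.5 buffer. Tb-PY20 TR-FRET 520/495 ratio gave % inhibition versus DMSO and no-enzyme controls.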

FGFR1 = target: T4, FGFR1 (Homo sapiens, UniProt P11362); experiment: FGFR1 kinase activity inhibition assay (LanthaScreen TR-FRET)
T4 construct: cytoplasmic domain [398-822 (terminal) amino acids]; purchased Carna 08-133
How it was run: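 Emission ratio 520 nm/495 nm by TR-FRET after stopping reaction with 10 mM EDTA and 60 min incubation at 22°C. Inhibition normalized between no-enzyme (min) and DMSO (max) controls, then fitted to a four-parameter curve (Top, Bottom, HillSlope).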

[1] = FGFR2 kinase, TR-FRET, read-out: IC50 (nM) FGFR2
[2] = FGFR3 kinase, TR-FRET, read-out: IC50 (nM) FGFR3
[3] = FGFR4 kinase, TR-FRET, read-out: IC50 (nM) FGFR4
[4] = FGFR1 kinase, TR-FRET, read-out: IC50 (nM) FGFR1

T4 sequence (P11362 398-822): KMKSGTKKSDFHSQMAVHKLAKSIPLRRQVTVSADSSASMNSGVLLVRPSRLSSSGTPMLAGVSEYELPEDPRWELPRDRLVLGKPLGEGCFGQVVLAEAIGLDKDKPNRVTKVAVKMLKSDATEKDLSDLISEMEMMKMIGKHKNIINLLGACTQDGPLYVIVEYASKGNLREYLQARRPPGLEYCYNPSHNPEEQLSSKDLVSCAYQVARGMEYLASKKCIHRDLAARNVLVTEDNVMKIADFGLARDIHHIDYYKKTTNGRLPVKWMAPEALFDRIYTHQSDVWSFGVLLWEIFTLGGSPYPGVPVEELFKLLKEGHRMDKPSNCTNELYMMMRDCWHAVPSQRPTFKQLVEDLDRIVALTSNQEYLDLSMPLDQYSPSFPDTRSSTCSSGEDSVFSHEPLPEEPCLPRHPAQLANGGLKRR
T1 sequence (P21802 399-821): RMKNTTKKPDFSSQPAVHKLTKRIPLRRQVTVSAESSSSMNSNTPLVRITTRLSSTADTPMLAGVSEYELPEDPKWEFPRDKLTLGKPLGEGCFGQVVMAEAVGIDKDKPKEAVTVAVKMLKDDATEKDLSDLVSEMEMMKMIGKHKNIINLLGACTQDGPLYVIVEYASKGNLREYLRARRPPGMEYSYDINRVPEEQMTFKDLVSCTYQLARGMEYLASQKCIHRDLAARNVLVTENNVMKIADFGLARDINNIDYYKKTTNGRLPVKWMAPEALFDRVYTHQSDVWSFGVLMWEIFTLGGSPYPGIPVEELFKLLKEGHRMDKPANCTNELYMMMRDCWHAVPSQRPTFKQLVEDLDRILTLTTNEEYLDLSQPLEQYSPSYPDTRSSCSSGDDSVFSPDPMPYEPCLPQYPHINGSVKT
T2 sequence (P22607 436-806): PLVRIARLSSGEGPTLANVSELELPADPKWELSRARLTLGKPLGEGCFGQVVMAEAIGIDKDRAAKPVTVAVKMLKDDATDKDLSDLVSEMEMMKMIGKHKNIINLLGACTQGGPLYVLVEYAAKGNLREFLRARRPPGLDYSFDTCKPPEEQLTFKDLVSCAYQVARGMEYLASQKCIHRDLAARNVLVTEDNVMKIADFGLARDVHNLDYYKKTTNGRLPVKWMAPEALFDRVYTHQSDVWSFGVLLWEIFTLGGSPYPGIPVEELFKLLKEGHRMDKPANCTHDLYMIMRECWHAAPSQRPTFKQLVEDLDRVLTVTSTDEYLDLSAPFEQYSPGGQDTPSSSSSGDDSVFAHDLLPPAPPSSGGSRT
T3 sequence (P22455 460-802): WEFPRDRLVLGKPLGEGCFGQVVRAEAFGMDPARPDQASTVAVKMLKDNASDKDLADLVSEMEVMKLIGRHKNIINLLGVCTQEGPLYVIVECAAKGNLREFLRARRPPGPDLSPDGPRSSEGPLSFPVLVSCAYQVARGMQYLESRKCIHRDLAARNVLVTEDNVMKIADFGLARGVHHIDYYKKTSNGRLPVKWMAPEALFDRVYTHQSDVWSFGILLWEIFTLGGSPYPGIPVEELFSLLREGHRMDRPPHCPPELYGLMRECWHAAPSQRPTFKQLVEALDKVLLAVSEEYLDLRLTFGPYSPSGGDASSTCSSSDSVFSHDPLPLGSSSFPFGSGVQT

| SMILES | IC50 (FGFR2; [1]) [nM] | IC50 (FGFR3; [2]) [nM] | Selectivity (X) FGFR1/FGFR3 (FGFR3) | Selectivity (X) FGFR2/FGFR3 (FGFR3) | Selectivity (X) FGFR4/FGFR3 (FGFR3) | IC50 (FGFR4; [3]) [nM] | IC50 (FGFR1; [4]) [nM] | IC50 (FGFR2) [nM] | IC50 (FGFR3) [nM] | IC50 (FGFR4) [nM] | IC50 (FGFR1) [nM] |
| --- | --- | --- | --- | --- | --- | --- | --- | --- | --- | --- | --- |
| CC(Oc1ccc2[nH]nc(-c3cnn(C)c3)c2c1)c1cccc2nnccc12 (stereo not shown) [Example 119, 5-(1-((3-(1-methyl-1H-pyrazol-4-yl)-1H-indazol-5-yl)oxy)ethyl)cinnoline] | 1 to 10 | 1 to 10 | B (B represents 20 ≤ multiple X<50) | A (A represents 1 ≤ multiple X<20) | B (B represents 20 ≤ multiple X<50) | 10 to 100 | 10 to 100 | – | – | – | – |
| [2H]C([2H])([2H])C(Oc1ccc2[nH]nc(-c3cnn(C)c3)c2c1)c1c(C)ccc2ncccc12 (stereo not shown) [Example 122, 6-methyl-5-(1-((3-(1-methyl-1H-pyrazol-4-yl)-1H-indazol-5-yl)oxy)ethyl-2,2,2-d3)quinoline] | 1 to 10 | < 1 | B (B represents 20 ≤ multiple X<50) | A (A represents 1 ≤ multiple X<20) | B (B represents 20 ≤ multiple X<50) | 10 to 100 | 10 to 100 | – | – | – | – |
| CC(Oc1ccc2[nH]nc(-c3cnn(C)c3)c2c1)c1cc(F)cc2ncccc12 (stereo not shown) [Example 124, 7-fluoro-5-(1-((3-(1-methyl-1H-pyrazol-4-yl)-1H-indazol-5-yl)oxy)ethyl)qu inoline] | 1 to 10 | < 1 | B (B represents 20 ≤ multiple X<50) | A (A represents 1 ≤ multiple X<20) | B (B represents 20 ≤ multiple X<50) | 10 to 100 | 10 to 100 | – | – | – | – |
| Cc1ccnc2cccc(C(C)Oc3ccc4[nH]nc(-c5cnn(C)c5)c4c3)c12 (stereo not shown) [Example 126, 4-methyl-5-(1-((3-(1-methyl-1H-pyrazol-4-yl)-1H-indazol-5-yl)oxy)ethyl)qu inoline] | 1 to 10 | 1 to 10 | B (B represents 20 ≤ multiple X<50) | A (A represents 1 ≤ multiple X<20) | C (C represents 50 ≤ multiple X<100) | > 100 | 10 to 100 | – | – | – | – |
| CC(Oc1ccc2[nH]nc(-c3cnn(C)c3)c2c1)c1cccn2nccc12 (stereo not shown) [Example 132, 3-(1-methyl-1H-pyrazol-4-yl)-5-(1-(pyrazolo[1,5-a]pyridin-4-yl)ethoxy)-1H-indazole] | 1 to 10 | < 1 | B (B represents 20 ≤ multiple X<50) | A (A represents 1 ≤ multiple X<20) | B (B represents 20 ≤ multiple X<50) | 10 to 100 | 10 to 100 | – | – | – | – |
| Cc1cc(C(C)Oc2ccc3[nH]nc(-c4cnn(C)c4)c3c2)c2cccnc2c1 (stereo not shown) [Example 133, 7-methyl-5-(1-((3-(1-methyl-1H-pyrazol-4-yl)-1H-indazol-5-yl)oxy)ethyl)qu inoline] | 1 to 10 | < 1 | B (B represents 20 ≤ multiple X<50) | A (A represents 1 ≤ multiple X<20) | D (D represents 100 ≤ multiple X) | > 100 | 10 to 100 | – | – | – | – |
| CC(Oc1ccc2[nH]nc(-c3cnn(C)c3)c2c1)c1cc(Cl)cc2ncccc12 (stereo not shown) [Example 134, 7-chloro-5-(1-((3-(1-methyl-1H-pyrazol-4-yl)-1H-indazol-5-yl)oxy)ethyl)qu inoline] | 10 to 100 | 1 to 10 | C (C represents 50 ≤ multiple X<100) | A (A represents 1 ≤ multiple X<20) | D (D represents 100 ≤ multiple X) | > 100 | > 100 | – | – | – | – |
| CC(Nc1ccc2[nH]nc(-c3cnn(C)c3)c2c1)c1cccc2nccnc12 (stereo not shown) [Example 135, 3-(1-methyl-1H-pyrazol-4-yl)-N-(1-(quinoxalin-5-yl)ethyl)-1H-indazole-5-amine] | 1 to 10 | 1 to 10 | B (B represents 20 ≤ multiple X<50) | A (A represents 1 ≤ multiple X<20) | B (B represents 20 ≤ multiple X<50) | 10 to 100 | 10 to 100 | – | – | – | – |
| CCc1cc(C(C)Oc2ccc3[nH]nc(-c4cnn(C)c4)c3c2)c2nccnc2c1 (stereo not shown) [Example 138, 7-ethyl-5-(1-((3-(1-methyl-1H-pyrazol-4-yl)-1H-indazol-5-yl)oxy)ethyl)quinoxaline] | 1 to 10 | < 1 | C (C represents 50 ≤ multiple X<100) | A (A represents 1 ≤ multiple X<20) | C (C represents 50 ≤ multiple X<100) | 10 to 100 | 10 to 100 | – | – | – | – |
| Cc1cc(C(C)Oc2ccc3[nH]nc(-c4cnn(C)c4)c3c2)c2nccnc2c1 (stereo not shown) [Example 140, 7-methyl-5-(1-((3-(1-methyl-1H-pyrazol-4-yl)-1H-indazol-5-yl)oxy)ethyl)qu inoxaline] | 1 to 10 | < 1 | A (A represents 1 ≤ multiple X<20) | A (A represents 1 ≤ multiple X<20) | B (B represents 20 ≤ multiple X<50) | 10 to 100 | 1 to 10 | – | – | – | – |
| CC(Oc1ccc2[nH]nc(-c3cnn(C)c3)c2c1)c1cc(F)cc2nccnc12 (stereo not shown) [Example 142, 7-fluoro-5-(1-((3-(1-methyl-1H-pyrazol-4-yl)-1H-indazol-5-yl)oxy)ethyl)qu inoxaline] | 1 to 10 | < 1 | A (A represents 1 ≤ multiple X<20) | A (A represents 1 ≤ multiple X<20) | B (B represents 20 ≤ multiple X<50) | 10 to 100 | 1 to 10 | – | – | – | – |
| Cc1ccn2nccc2c1C(C)Oc1ccc2[nH]nc(-c3cnn(C)c3)c2c1 (stereo not shown) [Example 155, 3-(1-methyl-1H-pyrazol-4-yl)-5-(1-(5-methylpyrazolo [1,5-a]pyridin-4-yl)ethoxy)-1H-indazole] | 1 to 10 | < 1 | B (B represents 20 ≤ multiple X<50) | A (A represents 1 ≤ multiple X<20) | B (B represents 20 ≤ multiple X<50) | 10 to 100 | 10 to 100 | – | – | – | – |
| CC(Oc1ccc2[nH]nc(-c3cnn(C)c3)c2c1)c1c(CO)ccc2ncccc12 (stereo not shown) [Example 156, (5-(1-((3-(1-methyl-1H-pyrazol-4-yl)-1H-indazol-5-yl)oxy)ethyl)quinolin-6-yl)m ethano] | – | – | B (B represents 20 ≤ multiple X<50) | A (A represents 1 ≤ multiple X<20) | A (A represents 1 ≤ multiple X<20) | – | – | 1 to 10 | 1 to 10 | 10 to 100 | 10 to 100 |
